{"source": "patent US7541339B2", "about": "“Par-2-activating peptide derivative and pharmaceutical composition using the same” (The University of Edinburgh, priority 2002, dated 2009)", "biological_target": "T1, human PAR-2 (Homo sapiens, UniProt P55085)", "T1 construct": "Human colorectal adenocarcinoma cell line, HCT-15, expressing endogenous PAR-2 at high levels; endogenous in cells; host or cells: HCT-15 (human colorectal adenocarcinoma)", "T1 sequence (P55085 26-397)": "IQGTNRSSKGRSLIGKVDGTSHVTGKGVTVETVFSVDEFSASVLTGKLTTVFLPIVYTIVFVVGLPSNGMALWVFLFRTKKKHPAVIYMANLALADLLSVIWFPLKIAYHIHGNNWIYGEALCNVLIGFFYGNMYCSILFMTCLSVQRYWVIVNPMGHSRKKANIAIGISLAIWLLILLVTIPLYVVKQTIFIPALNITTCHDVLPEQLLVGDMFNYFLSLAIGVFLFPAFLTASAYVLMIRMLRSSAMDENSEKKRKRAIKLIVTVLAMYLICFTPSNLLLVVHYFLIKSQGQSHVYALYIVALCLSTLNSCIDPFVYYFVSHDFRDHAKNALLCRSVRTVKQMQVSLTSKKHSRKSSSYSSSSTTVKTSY", "assay": "PAR-2 activation potency: intracellular calcium mobilization assay (modified Hawthorne's method) in HCT-15 cells", "assay_type": "cell-based", "from_the_text": "PAR-2 activation with the peptide derivative represented by the general formula (I) in accordance with the invention can be tested by various known methods. For example, the Hollenberg's method (Hollenberg, M. D., et al., Can. J. Physiol. Pharmacol., 75, 832-841 (1997)), the Kawabata's method (Kawabata, A., et al., J. Pharmacol. Exp. Ther., 288, 358-370 (1999)) and the Hawthorne's method (Howthorne et al., A High-Throughput Microtiter Plate-Based Calcium Assay for the Study of Protease-Activated Receptor 2 Activation, Analytical Biochemistry 290, 378-379 (2001)) may be used for the test.\nThe inventors tested the PAR-2 activation potency according to the modified Hawthorne's method. In brief, that is the assay of the calcium mobilization in cells endogenously expressing human PAR-2. In this assay, cells were loaded with Fluorescent Ca2+ indicator dye in presence of Probenecid, an inhibitor of anion exchange transporter, and stimulated with agonists. The agonist-mediated intracellular calcium mobilization was measured using multiwell plate reader.\nHuman colorectal adenocarcinoma cell line, HCT-15, expressing endogenous PAR-2 at high levels were seeded in 96-well black wall clear bottom plates and subconfluent cells were loaded with Fluorescent Ca2+ indicator dye (Calcium Plus Assay Reagent, Molecular Devices) in serum free medium (RPMI) containing 2.5 mM Probenecid and incubated for 1 hr at 37 C. Then cells were stimulated with various concentrations of test compounds and fluorescent change was determined at wave length of 485 nm for excitation and 525 nm for emission (Cutoff 515 nm) using multiwell scanning fluorometer (FlexStation, Molecular Devices).\nSLIGKV-OH (SEQ ID NO: 2) as a known PAR-2 activation peptide was used as a comparative compound, and the results are shown below in Table 1.", "note": "Like-named read-outs stand apart in the source and are kept apart here. Peptide text beside a SMILES is read from it. * marks the point of attachment. 2Furoyl = O=C(c1ccco1)*", "data": [{"compound": "CC[C@H](C)[C@H](NC(=O)[C@H](CC(C)C)NC(=O)c1ccco1)C(=O)NCC(=O)N[C@@H](CCCCN)C(=O)N[C@H](C(=O)O)C(C)C", "note": "[Example 6] (2Furoyl-LIGKV-OH; C-terminus assumed)", "values": [{"measurement": "EC50", "result": 1.68, "unit": "µM"}]}, {"compound": "CC[C@H](C)[C@H](NC(=O)[C@H](CC(C)C)NC(=O)c1ccco1)C(=O)NCC(=O)N[C@@H](CCCCN)C(=O)N[C@H](C(N)=O)C(C)C", "note": "[Example 16] (2Furoyl-LIGKV-NH2; C-terminus assumed)", "values": [{"measurement": "EC50", "result": 0.32, "unit": "µM"}]}, {"compound": "CC[C@H](C)[C@H](NC(=O)[C@H](CC(C)C)NC(=O)c1ccco1)C(=O)NCC(=O)N[C@@H](CCCNC(=N)N)C(=O)N[C@@H](CC(C)C)C(=O)O", "note": "[Example 18]", "values": [{"measurement": "EC50", "result": 1.21, "unit": "µM"}]}, {"compound": "H-SLIGKV-OH [SLIGKV-OH, reference compound]", "values": [{"measurement": "EC50", "setting": "HCT-15 cells expressing endogenous PAR-2, fluorescent Ca2+ indicator dye, 2.5 mM Probenecid, read-out: Agonist Activity (EC50)", "result": 22.8, "unit": "µM"}]}]}
